Experiments:
[1] = tested on: HeLa, MDA-MB231 and DLD-1 cancer cell lines; experiment: Sensitization to cancer cell death by combined treatment with demethylating agent and anticancer drug; assay type: cell-based
Procedure: (§1) Cell viability was determined using tetrazolium dye colorimetric test (MTT assay) at 570 nm.
The same number of HeLa, MDA-MB231 and DLD-1 cancer cell lines not treated with a drug were also grown, and then treated with the same concentration of an anticancer drug. The effect of the demethylating agent on sensitization to cell death was analyzed.

[2] = tested on: non-target cell line and shRIP3 cell line; experiment: Cell viability (MTT) of non-target and shRIP3 cell lines after combined treatment with demethylating agent and anticancer drug; assay type: cell-based, human
Procedure: (§2) A MISSION short-hairpin RNA (shRNA) plasmid that targets the coding region or 3′ UTR of hRIP3 mRNA (NM_006871) or a non-target control sequence (NM-027088) were obtained from Sigma-Aldrich. A Lentivirus plasmid was transfected into 293T cells (System Biosciences, LV900A-1) using Lipofectamine 2000 (Invitrogen, 11668019). Pseudoviral particles were collected at 2 days after transfection of the Lentivirus plasmid and infected into various cancer cells in the presence of polybrene (10 μg/mL).
as §1
(§3) Since a demethylating agent (5-AD or 5-AZA) is not a drug specific for a particular protein, it may cause expression of various proteins in addition to RIP3. […] After whether RIP3 was expressed was determined, a cell viability assay was performed.

HT-29 cells = experiment: Viability (MTT) of RIP3-silenced HT-29 cells treated with anticancer drug; assay type: cell-based, human; settings: 48 hours
Procedure: In order to identify the role of RIP3 in anticancer drug sensitivity, the HT-29 cell line which is a representative cancer cell line expressing RIP3 was used. To identity the function of RIP3, RIP3 expression was inhibited using the shRNA system and analyzed by a Western blotting technique.
In the present invention, in order to examine whether the RIP3 gene is associated with anticancer drug sensitivity, HT-29 cells transfected with RIP3 shRNA were treated with varying concentrations of doxorubicin and etoposide, and then the cell viability of the cancer cells was measured. Particularly, HT-29 cells transfected with RIP3 shRNA were treated with 2.5 μM and 5 μM of doxorubicin and 50 μM and 100 μM of etoposide, and then incubated for 48 hours. After the medium was replaced with a fresh medium containing 0.1 mg of MTT (3-([4,5-dimethylthiazol-2-yl]-2,5-diphenyltetrazolium bromide), the cells were further incubated for 2 hours. Colorimetric analysis was performed on a precipitate obtained by reducing a tetrazolium salt, in which viable cells is dissolved, into a purple formazan crystal. Next, the medium was removed, and the produced formazan crystal was dissolved in 500 μl of DMSO, and the absorbance was measured using an ELISA reader at 570 nm. Cell viability was expressed as a percentage relative to the control taken as 100% viability.

T47D cells = experiment: Viability (MTT) of RIP3-silenced T47D cells treated with anticancer drug; assay type: cell-based, human; settings: 48 hours; for anticancer drug resistance (MTT assay): T47D RIP3-knocked down test group, versus control group; for cell death (MTT assay): T47D control group
Procedure: The T47D cell line which is a breast cancer cell line expressing RIP3 was used to identify the role of RIP3 in various kinds of cancel. First, the shRIP3 T47D cell line was prepared in the same manner as described in Example 7.
In order to examine whether RIP3 increases anticancer drug sensitivity in T47D breast cancer cells, an MTT assay was performed. A control group and a RIP3-knocked down test group were incubated with doxorubicin, etoposide and taxol at the concentrations shown in FIG. 15 (right) for 48 hours.

[3] = tested on: RIP3 expression in non-target and shRIP3 cancer cell lines; experiment: RIP3 expression in non-target and shRIP3 cell lines treated with 5-AD (Western blotting); assay type: cell-based, human; settings: treated twice with 5-AD for 4 days
Procedure: as §2, with “μg/mL). At 2 days after infection, infected cells were selected with puromycin, and RIP3 knockdown was confirmed by immunoblotting. Cells without expression endogenous RIP3 were afterwards treated with 5-AD for 4 days and analyzed by immunoblotting.” for “μg/mL).”
Cells were lysed in M2 buffer.
as §3

[4] = tested on: MDA-MB231 breast cancer cell line tumors; experiment: MDA-MB231 mouse xenograft model, combined treatment with 5-AD and Doxorubicin; assay type: in vivo, BALB/c nude mice
Procedure: In order to verify the sensitization effect induced by RIP3 expression in experimental animal models, the MDA-MB231 breast cancer cell line that expresses no RIP3 was injected into BALB/c nude mice to form tumors. Next, the mice were injected with 5-AD for 1 week, and then injected with Doxorubicin for 33 days, and a change in the volume of the tumor tissue was measured. […] In addition, the tumor tissue was isolated after the last drug treatment, and the mass thereof was measured. […] The tumor tissue subjected to combined treatment with 5-AD and Doxorubicin was prepared into a paraffin block which was then visualized by H&E staining, p-H2AX antibody staining, and TUNEL staining.

[5] = tested on: RIP3 expression in MDA-MB231 tumor tissue; experiment: RIP3 expression in isolated xenograft tumor tissue (RT-PCR, IHC); assay type: in vivo, BALB/c nude mice; settings: group treated with 5-AD
Procedure: Immunohistochemistry was performed using the UltraVision LP Detection System TL-060-HD (Thermo Scientific, Bioanalytica) according to the manufactures instructions. Thin paraffin sections (4.5 μm) were deparaffinized in xylene and rehydrated in a graded series of ethanol-aqueous solutions. Antigen retrieval was done by heating the slides for 15 min in a microwave oven in 10 mM citrate buffer (pH 6.0). Endogenous peroxidase activity was blocked by incubation in 3% hydrogen peroxide in TBS for 10 min, and then the sections were incubated overnight at 4° C. in 1:300 dilutions of anti-RIP3 antibody. Chromogen was developed for 5 min with 3,3′-diaminobenzidine (TL-015-HD, Them© Scientific, Bioanalytica, Greece) solution and counterstained with Meyer's hematoxylin. Immunohistochemical staining was evaluated based on the proportion of stained cells and immunostaining intensity. H-score used in the present invention was obtained by multiplying the proportion of stained cells (i) and staining intensity graded 0 (negative), 1 (weak), 2 (moderate), or 3 (strong). H-score ranged from 0 to 300. Staining was carried out for tumor and normal tissues for each sample for the same time. Staining was interpreted by an experienced pathologist blinded to the clinical data.
In addition, RNA was extracted from the isolated tumor tissue and subjected to RT-PCR. […]

[6] = tested on: RIP3 expression in RIP3-silenced cancer cell lines; experiment: RIP3 expression in RIP3-silenced cancer cell lines treated with demethylating agent (Western blotting)
Procedure: Cells were lysed in M2 buffer. Equal amounts of cell extracts were analyzed by SDS-PAGE and immunoblotting, and visualized by enhanced chemiluminescence (ECL, Amersham). A variety of RIP3-silenced cancer cell lines (including liver cancer, cervical cancer, prostate cancer, brain cancer, ovarian cancer, skin cancer, lung cancer, breast cancer, blood cancer, colorectal cancer, and bladder cancer) were grown to a confluence of 10-20%, and then treated twice with 5-AD for 4 days, after which RIP3 expression patterns in the cell lines were analyzed by a Western blotting technique.

[7] = tested on: RIP3 expression in HeLa cervical cell line and DLD-1 colorectal cancer cell line; experiment: RIP3 expression at mRNA or protein level in HeLa and DLD-1 cells treated with demethylating agent; assay type: cell-based; settings: HeLa and DLD-1 cell lines which expressed no RIP3
[8] = anticancer drug in combined treatment with the demethylating agent (5-AD or 5-AZA)
[9] = non-target cell line, anticancer drug combined with demethylating agent (5-AD)
[10] = HT-29 control group, doxorubicin 2.5 and 5 μM, etoposide 50 and 100 μM
[11] = HT-29 with RIP3 knocked down with shRNA, versus control group

N.N.[Cl][Pt][Cl] [Cisplatin, cisplatin]
sensitization to cell death [1, 8]: showed the effect of sensitizing the cancer cell lines to cell death | sensitization to cell death [2, 9]: showed the effect of sensitizing the cancer cell line to cell line

COc1cc([C@@H]2c3cc4c(cc3[C@@H](O[C@@H]3O[C@@H]5CO[C@@H](C)O[C@H]5[C@H](O)[C@H]3O)[C@H]3COC(=O)[C@H]23)OCO4)cc(OC)c1O [Etoposide, etoposide]
sensitization to cell death [1, 8]: showed the effect of sensitizing the cancer cell lines to cell death | sensitization to cell death [2, 9]: showed the effect of sensitizing the cancer cell line to cell line | cell viability (HT-29 cells; [10]): the cell viability decreased depending on the concentration | cell viability (HT-29 cells; [11]): the cell viability significantly increased compared to that of the control group | anticancer drug resistance (MTT assay) (T47D cells): significantly increased compared to that of the control group | cell death (MTT assay) (T47D cells): killed depending on the concentration

COc1cccc2c1C(=O)c1c(O)c3c(c(O)c1C2=O)C[C@@](O)(C(=O)CO)C[C@@H]3O[C@H]1C[C@H](N)[C@H](O)[C@H](C)O1 [Doxorubicin, doxorubicin]
sensitization to cell death [1, 8]: showed the effect of sensitizing the cancer cell lines to cell death | sensitization to cell death [2, 9]: showed the effect of sensitizing the cancer cell line to cell line | cell viability (HT-29 cells; [10]): the cell viability decreased depending on the concentration | cell viability (HT-29 cells; [11]): the cell viability significantly increased compared to that of the control group | anticancer drug resistance (MTT assay) (T47D cells): significantly increased compared to that of the control group | cell death (MTT assay) (T47D cells): killed depending on the concentration

Nc1ncn([C@H]2C[C@H](O)[C@@H](CO)O2)c(=O)n1 [5-AD, 5-aza-2′-deoxycytidine]
sensitization to cell death ([1]; cervical, breast, colorectal and bladder cancer cell lines treated with the anticancer drug after RIP3 induction by 5-AD): sensitized to cell death | RIP3 expression ([3]; non-target cell line): RIP3 expression was induced | RIP3 expression ([3]; shRIP3 cell line, Western blotting): RIP3 was not expressed | sensitization to cell death ([2]; shRIP3 cell line that expresses no RIP3, 5-AD combined with anticancer drug): the sensitization effect was inhibited | volume of the tumor tissue ([4]; 5-AD for 1 week then Doxorubicin for 33 days, combined treatment compared to Doxorubicin alone): significantly reduced | H&E staining, p-H2AX antibody staining and TUNEL staining of tumor tissue ([4]; combined treatment with 5-AD and Doxorubicin): the death of the cancer cells occurred by the combined treatment | mass of tumor tissue ([4]; tumor isolated after the last drug treatment, combined treatment with Doxorubicin and 5-AD): significantly reduced | RIP3 expression (RT-PCR) ([5]; RNA from isolated tumor tissue): increased | RIP3 expression (immunohistochemistry) ([5]; paraffin block of isolated tumor tissue): RIP3 expression was increased | RIP3 expression ([6]; cancer cell lines that expressed no RIP3, 5-AD 2 uM, treated twice for 4 days, Western blotting): RIP3 expression was induced

CC[C@@]1(O)C(=O)OCc2c1cc1n(c2=O)Cc2cc3ccccc3nc2-1 [CPT]
sensitization to cell death [1, 8]: showed the effect of sensitizing the cancer cell lines to cell death | sensitization to cell death [2, 9]: showed the effect of sensitizing the cancer cell line to cell line

CC(=O)O[C@H]1C(=O)[C@@]2(C)[C@H]([C@H](OC(=O)c3ccccc3)[C@]3(O)C[C@H](OC(=O)[C@H](O)[C@@H](NC(=O)c4ccccc4)c4ccccc4)C(C)=C1C3(C)C)[C@]1(OC(C)=O)CO[C@@H]1C[C@@H]2O [Paclitaxel, paclitaxel]
sensitization to cell death [1, 8]: showed the effect of sensitizing the cancer cell lines to cell death | anticancer drug resistance (MTT assay) (T47D cells): significantly increased compared to that of the control group | cell death (MTT assay) (T47D cells): killed depending on the concentration

O=c1[nH]cc(F)c(=O)[nH]1 [5-FU]
sensitization to cell death [1, 8]: showed the effect of sensitizing the cancer cell lines to cell death | sensitization to cell death [2, 9]: showed the effect of sensitizing the cancer cell line to cell line

Nc1ncn([C@@H]2O[C@H](CO)[C@@H](O)[C@H]2O)c(=O)n1 [5-AZA, 5-azacytidine]
RIP3 expression [7]: RIP3 expression was induced | RIP3 expression ([6]; cancer cell lines of Example 3, treated twice for 4 days): induced RIP3 expression

O=C(O)C(Cc1c[nH]c2ccccc12)N1C(=O)c2ccccc2C1=O (stereo not shown) [RG108]
RIP3 expression [7]: RIP3 expression was induced

Reference: patent US10921325B2, “Composition for anticancer adjuvant comprising RIP3 expression promoter as active ingredient, method for screening anticancer adjuvant which promotes RIP3 expression and enhances sensitivity of anticancer agent, and method for monitoring sensitivity of anticancer agent” (AJOU UNIVERSITY INDUSTRY-ACADEMIC COOPERATION FOUNDATION, priority 2015, dated 2021)
